# PMC5059943, “Screening for peptides targeted to IL-7Rα for molecular imaging of rheumatoid arthritis synovium” (Arthritis Research & Therapy, 2016)
# Where a SMILES comes first, the peptide text is derived from it. Bridges are numbered along the chain shown (N, C = ends). Where no end group is shown, it is not given here. The star is where a group is joined. Biotin = O=C1N[C@H]2[C@H](CS[C@H]2CCCCC(=O)*)N1; AEEA = NCCOCCOCC(=O)O
# Key:
# [1] = tested on: IL-7Rα expression of Jurkat cells; test: IL-7Rα expression of ADC vs. NS Jurkat cells; type: cell-based; settings: 0.4 μM ADC, 4 days
# Method: Jurkat cells were cultured in RPMI-1640 culture medium supplemented with 10 % newborn calf serum heat-inactivated and 1 % antibiotic-antimycotic (all from Invitrogen). The cells were stimulated with 0.4 μM of 5-Aza-2’-deoxycytidine (ADC, Sigma-Aldrich) [26]. The stimulated cells were immobilized on poly-L-lysine (Sigma-Aldrich) coated coverslips and fixed in a solution of 4 % formaldehyde (Sigma-Aldrich). […] Biotinylated peptides were detected with a goat anti-biotin antibody followed by fluorescein-conjugated rabbit anti-goat antibody (both from Vector Labconsult). Anti-IL-7Rα antibody was detected with Texas Red horse anti-mouse antibody (Vector Labconsult). […] The coverslips were mounted on slides with Vectashield mounting medium for fluorescence with 4',6-diamidino-2-phenylindole (DAPI) (Vector Labconsult) and observed on a DM2000 Leica microscope equipped with a DFC 425C camera (Leica Microsystems, Groot Bijgaarden, Belgium).
# USPIO-P258 was co-localized with IL-7Rα expressed by Jurkat cells using an immunofluorescence protocol. […] The coverslips were finally mounted on slides with a mounting medium for fluorescence (Vector Labconsult). The RRFL was evaluated as described above.
# [2] = target: T1, IL-7Rα (Homo sapiens, UniProt P16871); test: ELISA of biotinylated peptides, K*d for IL-7Rα; type: binding; settings: synthesized peptides, IL-7Rα vs. FN
# T1 construct: screened against the extracellular domain of IL-7Rα (E^21–D^239); Fc (chimera partner); purchased R&D Systems
# T1 sequence (P16871 21-239): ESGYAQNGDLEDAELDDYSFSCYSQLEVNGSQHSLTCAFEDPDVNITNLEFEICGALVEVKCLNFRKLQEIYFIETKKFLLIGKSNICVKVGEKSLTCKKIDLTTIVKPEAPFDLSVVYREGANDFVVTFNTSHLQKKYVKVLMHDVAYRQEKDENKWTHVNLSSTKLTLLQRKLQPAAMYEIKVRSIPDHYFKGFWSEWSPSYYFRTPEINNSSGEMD
# Method: (§1) Serial dilutions of biotinylated peptides were incubated with IL-7Rα or FN immobilized on ELISA plates as described above and blocked with protein-free blocking buffer (PFBB) (Perbioscience, Erembodegem, Belgium). Peptides bound to the target were detected with a goat anti-biotin antibody, followed by a peroxidase-conjugated anti-goat antibody made in horse (both from Vector Labconsult, Brussels, Belgium). […] The protocol is largely described in Additional file 1: Methods. […]
# (§2) screening of the phage clones.
# (§3) After 30 min of incubation, the […]
# (§4) antibody as described above.
# (§5) 2. Characterization of the selected IL-7Rα-binding peptides […]
# (§6) by an incubation of 2h at 37°C. The wells were subsequently incubated (1h, room temperature) […]
# (§7) 20 and 0.5% BSA (1h, room temperature). After each incubation step, the wells were washed with PBST-0.05% using a microplate washer. The staining reaction was developed with 0.1 […]
# (§8) For this purpose, a range of IL-
# [3] = tested on: lysosome content of Jurkat cells; test: Lysosome content of Jurkat cells (Lysotracker Red DND-99); type: cell-based
# [4] = tested on: STAT5 activation in ADC-stimulated Jurkat cells; test: Phospho-STAT5 detection on ADC-stimulated Jurkat cells by immunofluorescence; type: cell-based, human
# Method: The solutions were replaced every day after culture tube centrifugation and supernatant removal.
# The signal intensity (SI) was measured on microphotographs corresponding to three to six different microscopic fields using the ImageJ software (National Institutes of Health, USA), and the relative ratio of fluorescent labeling (RRFL) was then calculated using the subsequent equation: RRFL=SIsample/Numberofcells/SInegativecontrols/Numberofcells×100 […]
# stained with 0.05% 3,3'-diaminobenzidine (DAB) completed with 0.02% H2O2 in PBS. Finally, they were counterstained with Hemalun and Luxol fast blue and mounted in a permanent […]
# To validate the binding of biotinylated P258 to human knee sections, the endogenous biotin was first blocked with a blocking kit (Invitrogen). The histologic sections were then incubated (4°C, overnight) with 1 µM of P258, followed by an incubation (1h, room […]
# goat antibody made in horse (Vector Labconsult). The staining and counterstaining were performed as described above for anti-IL-7Rα monoclonal antibody.
# 2.5. Phospho-STAT5 detection on Jurkat cells and modulation by peptide P725 Jurkat cells were cultured and stimulated with ADC as described above. The experiment was performed in triplicate on stimulated and non -stimulated cells that were distributed in several culture tubes at a concentration of 10^6 cells/mL and treated (37°C in a humidified 5% CO2 incubator) with different compounds diluted in the culture medium as follows: (A) cells […]
# for 30 min with 1 mM of P725; (C) cells pre-incubated for 30 min with 10 µg/mL of mo use […]
# In the case of samples B and C, the […]
# replaced every day after centrifuging the culture tubes and removing the precedent solutions by […]
# At the end of the treatment period, the cells were immobilized on poly -L-lysine coated coverslips and fixed with 4% formaldehyde as described above. After three times rinsing with PBS, the cells were treated with 100% methanol for 10 min at -20°C. […] The primary antibodies bound to the cells were then detected by a co- […]
# [5] = tested on: IL-7Rα expressed by ADC-stimulated Jurkat cells; test: Binding of peptides to ADC-stimulated Jurkat cells and co-localization with IL-7Rα by immunofluorescence; type: cell-based, human
# Method: The cells were stimulated with 0.4 μM of 5-Aza-2’-deoxycytidine (ADC, Sigma-Aldrich). The stimulated cells were immobilized on poly-L-lysine (Sigma-Aldrich) coated coverslips and fixed in a solution of 4 % formaldehyde (Sigma-Aldrich). […] Biotinylated peptides were detected with a goat anti-biotin antibody followed by fluorescein-conjugated rabbit anti-goat antibody (both from Vector Labconsult). Anti-IL-7Rα antibody was detected with Texas Red horse anti-mouse antibody (Vector Labconsult). Control samples consisted of ADC-stimulated or non-stimulated (NS) Jurkat cells incubated with low-affinity peptide binders (e.g., P255, P259), a mouse IgG isotype control, or with secondary antibodies after excluding the primary antibodies. […] The protocol is additionally described in Additional file 1: Methods.
# to the target was detected as described above.
# (Sigma-Aldrich) diluted in PBS.
# (Vector Labconsult) diluted in phosphate buffer. They were then co-incubated (1h, room
# camera (Leica Microsystems, Groot Bijgaarden, Belgium).
# [6] = target: T2, FN (Homo sapiens, UniProt P02751); test: ELISA of biotinylated peptides, K*d for FN; type: binding; settings: Fig. 1a, 2 h at 37 °C, read-out: Kd: FN, synthesized peptides
# T2 construct: fragment 3 of recombinant human FN-1 (R&D Systems); purchased R&D Systems
# T2 sequence (P02751 607-1265 limits assumed): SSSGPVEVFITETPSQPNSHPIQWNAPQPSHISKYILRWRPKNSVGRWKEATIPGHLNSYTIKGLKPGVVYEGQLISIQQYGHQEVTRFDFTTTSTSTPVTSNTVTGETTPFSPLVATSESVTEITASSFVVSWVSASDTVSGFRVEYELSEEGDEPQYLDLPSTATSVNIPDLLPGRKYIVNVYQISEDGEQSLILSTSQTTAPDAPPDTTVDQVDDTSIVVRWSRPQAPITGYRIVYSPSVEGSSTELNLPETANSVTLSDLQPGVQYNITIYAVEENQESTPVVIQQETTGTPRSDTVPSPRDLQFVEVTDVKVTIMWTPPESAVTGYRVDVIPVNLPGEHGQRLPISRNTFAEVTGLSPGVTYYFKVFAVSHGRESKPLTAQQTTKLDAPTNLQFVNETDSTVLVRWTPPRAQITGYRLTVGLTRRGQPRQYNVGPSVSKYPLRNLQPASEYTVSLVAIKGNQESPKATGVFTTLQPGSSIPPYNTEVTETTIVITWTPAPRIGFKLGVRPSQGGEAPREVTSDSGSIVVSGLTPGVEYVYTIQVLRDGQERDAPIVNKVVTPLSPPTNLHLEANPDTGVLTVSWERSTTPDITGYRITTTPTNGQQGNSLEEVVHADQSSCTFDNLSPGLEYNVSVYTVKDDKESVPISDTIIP
# Method: as §1, §2, §3, §4, §5, §6, §7, §8
# [7] = target: IL-7Rα (high-affinity receptor) (Homo sapiens) (UniProt P16871); settings: cited from earlier work
# [8] = target: low-affinity IL-7R; settings: read-out: Kd of IL-7 against low-affinity IL-7R, reported previously; cited from earlier work
# Description: (§9) In addition, two antibodies were used to detect IL-7, which means that additional rinsing steps may contribute to extensive prot ...
# [9] = target: high-affinity IL-7R; settings: read-out: Kd of IL-7 against high-affinity IL-7R, reported previously; cited from earlier work
# Description: as §9
# [10] = target: T3, IL-7Rα 21-239 (Homo sapiens, UniProt P16871); test: ELISA
# T3 chain: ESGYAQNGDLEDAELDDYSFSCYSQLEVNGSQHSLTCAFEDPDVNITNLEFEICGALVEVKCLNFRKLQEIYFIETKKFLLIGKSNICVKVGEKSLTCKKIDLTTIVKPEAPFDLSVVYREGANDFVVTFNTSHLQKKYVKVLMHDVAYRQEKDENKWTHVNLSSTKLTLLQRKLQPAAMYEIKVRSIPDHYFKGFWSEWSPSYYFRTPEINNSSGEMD
# [11] = target: T3, IL-7Rα 21-239; test: competition ELISA vs IL-7
molecule,measurement,setting,value
"Nc1ncn([C@H]2C[C@H](O)[C@@H](CO)O2)c(=O)n1 [ADC, 5-Aza-2’-deoxycytidine]",IL-7Rα expression in ADC cells vs. NS cells (fold),[1],about six
C[C@@H]1NC(=O)[C@@H]2CCCN2C(=O)[C@H](CCCNC(=N)N)NC(=O)[C@H](CCC(N)=O)NC(=O)[C@@H]2CCCN2C(=O)[C@H](Cc2c[nH]cn2)NC(=O)[C@@H]2CCCN2C(=O)[C@@H](NC(=O)COCCOCCNC(=O)CCCC[C@@H]2SC[C@@H]3NC(=O)N[C@@H]32)CSSC[C@@H](C(N)=O)NC1=O [Peptide P722] ({Biotin-AEEA}-CPHPQRPAC-NH2; disulfide 1-9; C-terminus assumed),"Relative affinity for IL-7Rα and FN, peptides",[2],"lost its affinity against IL-7Rα, displaying equivalent binding to FN"
CC[C@H](C)[C@@H]1NC(=O)[C@H](CCCCN)NC(=O)[C@@H](NC(=O)COCCOCCNC(=O)CCCC[C@@H]2SC[C@@H]3NC(=O)N[C@@H]32)CSSC[C@@H](C(N)=O)NC(=O)[C@@H]2CCCN2C(=O)[C@H](CCSC)NC(=O)[C@H](CO)NC(=O)[C@H](CCCCN)NC(=O)[C@H](CCSC)NC1=O [Peptide P725] ({Biotin-AEEA}-CKIMKSMPC-NH2; disulfide 1-9; C-terminus assumed),Lysosome content after treatment,"[3]; with IL-7, P725 or anti-IL-7Rα antibody, p < 0.05",significantly diminished
same,Inhibition of IL-7-induced STAT5 activation,"[4]; P725 1 mM or antibody 10 µg/mL pre-incubated 30 min, then IL-7 6 ng/mL 48 h, ADC-stimulated Jurkat cells",82%
same,Prevention of IL-7 binding and STAT-5 activation,"[4]; P725 1 mM or antibody 10 µg/mL pre-incubated 30 min, then IL-7 6 ng/mL 48 h, p < 0.01",prevented IL-7 binding and STAT-5 activation
same,Co-localization with IL-7Rα,[5]; biotinylated P258 (0.04 μM) or P725 (5 μM),co-localizes with peptides
same,Decrease of anti-IL-7Rα monoclonal antibody staining intensity,"[5]; biotinylated P725 (5 μM), overnight 4 °C",57%
C[C@@H]1NC(=O)[C@@H](NC(=O)COCCOCCNC(=O)CCCC[C@@H]2SC[C@@H]3NC(=O)N[C@@H]32)CSSC[C@@H](C(N)=O)NC(=O)[C@H](Cc2c[nH]cn2)NC(=O)[C@@H]2CCCN2C(=O)[C@@H]2CCCN2C(=O)[C@H](CS)NC(=O)[C@H](C)NC(=O)[C@H](CO)NC1=O [Peptide P726] ({Biotin-AEEA}-CASACPPHC-NH2; disulfide 1-9; C-terminus assumed),"Relative affinity for IL-7Rα and FN, peptides",[2],highest specific binding to IL-7Rα
ASACPPH-NH2 [Peptide P258],Kd,[6],1800 nM
IL-7 (from UniProt P13232),Kd,[7],0.2 nM
IL-7: human recombinant IL-7 (R&D Systems; eBioscience),Increase in lysosome content,[3]; IL-7 vs. ADC-treated controls,398%
same,Increase in phospho-STAT-5,"[4]; IL-7 6 ng/mL, 48 h, vs. ADC-treated controls",424%
same,Kd,[8],10 nM
same,Kd,[9],0.2 nM
"ASACPPH-NH2 (also: AEEA attached, end not given here, conjugated to PEGylated USPIO) [USPIO-P258]",Kd,[10],4900 nM
same,IC50,[11],6.6 µM
"CKIMKSMPC (disulfide 1-9 (inferred); also: biotin-AEEA attached, end not given here)",Kd,[10],1100 nM
"CKIMKSMPC (disulfide 1-9 (inferred); also: AEEA attached, end not given here)",IC50,[11],16.4 µM
"ASACPPH (also: biotin-AEEA attached, end not given here) [P258]",Kd,[10],600 nM
